The results in this text go back to patent US10806765B2, “Immunologically active phyto-mixture and its use in the prevention and in a method for treatment of efflorescences” (priority 2015, dated 2020).

By IC50 is commonly meant the concentration at which inhibition is half-maximal. Low readings indicate greater potency, high ones weaker potency. What is called MBC is the lowest tested concentration that kills the bacteria rather than only halting them. The MIC is the least concentration at which growth counts as inhibited.

Assay type in all cases: cell-based
A short description of data set [1]: MTT-assay, cytotoxicity of the extracts. The following applies: human, HaCaT cells (keratinocytes), individual extracts, mean ± SD, n=3. For orientation: Tetrazolium dyes change colour on reduction, which living cells bring about.
Protocol: HaCaT-Cells (human in vitro spontaneous transformed keratinocytes from histologically normal skin) of DMSZ (German Collection of Microorganisms and Cell Cultures) were kept in Dulbecco's modified Eagle Medium (DMEM) with glutamax (Invitrogen/Gibco, Karlsruhe, Germany) with 10% fetal calf serum (Sigma Aldrich, Germany), 100 U/ml penicillin and 100 μg/ml streptomycin and 1% NEAA.
The cells were cultivated at 37° C., 5% CO2 and 95% humidity. The cells were subcultivated by removing the medium, adding 0.075% EDTA-solution in 1-fold PBS (phosphate-buffered salt solution) and subsequently incubated at 37° C. for 10 min. […]
In order to determine the concentration dependent cytotoxicity 2×10^4 HaCaT-cells/sample well of a 96-well plate were transferred and incubated for 24 hours. […] After dissolving the formazan crystals formed by the HaCaT-cells in 100 μl DMSO (10 minutes shaking), absorption at 570 nm was measured (by means of Tecan Safire II Reader, Tecan Crailsheim, Germany). Doxorubicin was measured as reference. Cell vitality was determined according to the following formula:
IC50-values were calculated through the dose response curve which was created by use of a logistic regression curve with 4 parameters with the GraphPad Prism® 5.01 Software or SigmaPlot® 11.0.
Data set [2] has as its system Pseudomonas aeruginosa ATCC 27853. The data set is described as follows: MIC/MBC, microbouillon dilution. Conditions: ATCC27853, positive control antibiotic, unit from Table 5c. How it is done:
(§1) Gram-Positive Bacteria • Methicillin resistant Staphylococcus aureus MRSA NCTC 10442 (MRSA NCTC 10442) • Staphylococcus aureus ATCC 25923 (S. aureus ATCC 25923) • Staphylococcus epidermidis ATCC 14990 (S. epid. ATCC 14990)
(§2) Gram-Negative Bacteria • Pseudomonas aeruginosa ATCC 27853 (P. aerug. ATCC 27853) and • Acinetobacter baumanii ATCC BAA747 (ATCC BAA747)
(§3) The bacteria were precultivated on Columbia medium with 5% sheep blood at 37° C. for 24 hours. On to two colonies were suspended in saline solution (0.9% NaCl) and adjusted to a turbidity of 0.5 McFarland standard which corresponds to 1×10^8 colony forming units per milliliter (CFU/ml). Subsequently, the suspension was diluted to 1×10^6 CFU/ml.
(§4) Determination of the Minimal Inhibitory Concentration (MIC) and the Minimum Bactericidal Concentration (MBC)
(§5) The MIC was determined by means of the microbouillon dilution process according to NCCLS (2006). For this purpose, the aqueous extracts were dissolved in water (w/v) and the ethanolic extracts in 5% DMSO (w/v) with 80 mg/ml each and Bur. simaruba as well as Aloe vera were suspended with 160 mg/ml. The extracts and the combinations (1:1 mixture) of two plant extracts were respectively transferred into a sample well of a 96-well plate. The individual extracts were respectively adjusted to a concentration of 4 mg/ml to 8 mg/ml and 0.03 mg/ml and the combinations to 2:2 mg/ml to 0.3:0.3 mg/ml. Subsequently, the bacteria suspensions with about 5×10^5 CFU/ml in Müller Hinton medium (Fluka) were respectively added. The accordingly fitted 96-well plates were incubated at 37° C. for 24 hours.
(§6) The MIC was determined at 600 nm on the basis of the turbidity. In order to determine the MBC, 3 μl of the suspension of the respective sample well were spread on an full culture medium and incubated at 37° C. for 24 hours. The MBC was determined as lowest concentrations of the respective extract which totally kills the microorganisms.
(§7) All experiments were performed as three-fold determination (Table 4 to 5). The antibiotics Vancomycin (briefly: Van) and Streptomycin (briefly: Strep) were used parallely to each experimental approach as positive control for antimicrobial efficiency (Table 5c). Respectively one of the mentioned test germs was carried along with the respectively solvent (water, DMSO) as negative control for an inhibiting effect by the used solvent.

The subject of data set [3] is Acinetobacter baumanii ATCC BAA747. Kind of data set: MIC/MBC, microbouillon dilution. Conditions: Acinetobacter baumannii, ATCCBAA747. On the procedure:
as §1, §2, §3, §4, §5, §6, §7

The subject of data set [4] is Staphylococcus aureus ATCC 25923. The data set is described as follows: MIC/MBC, microbouillon dilution. On the procedure:
as §1, §2, §3, §4, §5, §6, §7

Data set [5] concerns Staphylococcus epidermidis ATCC 14990. Kind of data set: MIC/MBC, microbouillon dilution. On the procedure:
as §1, §2, §3, §4, §5, §6, §7

For data set [6], the system named is Methicillin resistant Staphylococcus aureus MRSA NCTC 10442. The data set is described as follows: MIC/MBC, microbouillon dilution. On the procedure:
as §1, §2, §3, §4, §5, §6, §7

Each structure is given as a SMILES string. In brackets after ≈: the same amount, converted by molar mass. Where two headings read alike, the source gives them in different places.

Regarding `COc1cccc2c1C(=O)c1c(O)c3c(c(O)c1C2=O)C[C@@](O)(C(=O)CO)C[C@@H]3O[C@H]1C[C@H](N)[C@H](O)[C@H](C)O1` [Doxorubicin], in data set [1], the IC50 amounted to 8.6 ± 2.03 µg/mL (≈ 15.8 µM).

As for `[H]/N=C(/N)N[C@H]1[C@H](O)[C@@H](O)[C@H](O[C@@H]2O[C@@H](C)[C@](O)(C=O)[C@H]2O[C@@H]2O[C@@H](CO)[C@H](O)[C@@H](O)[C@@H]2NC)[C@@H](N/C(N)=N\[H])[C@@H]1O` [Strep, Streptomycin], the MBC in data set [2] was found to be 8 µg/mL; in data set [3] (positive control antibiotic, unit from Table 5c, read-out: MBC) it was 4 µg/mL; in data set [4] (ATCC25923, positive control antibiotic, unit from Table 5c, read-out: MBC) it was 8 µg/mL; in data set [5] (ATCC14990, positive control antibiotic, unit from Table 5c, read-out: MBC) it was 8 µg/mL. Also, the MIC in data set [2] was 4 µg/mL; in data set [3] (positive control antibiotic, unit from Table 5c, read-out: MIC), 2 µg/mL; in data set [4] (ATCC25923, positive control antibiotic, unit from Table 5c), 2 µg/mL; in data set [5] (ATCC14990, positive control antibiotic, unit from Table 5c, read-out: MIC), 1 µg/mL.

For `CN[C@H](CC(C)C)C(=O)N[C@H]1C(=O)N[C@@H](CC(N)=O)C(=O)N[C@H]2C(=O)N[C@H]3C(=O)N[C@H](C(=O)N[C@H](C(=O)O)c4cc(O)cc(O)c4-c4cc3ccc4O)[C@H](O)c3ccc(c(Cl)c3)Oc3cc2cc(c3O[C@@H]2O[C@H](CO)[C@@H](O)[C@H](O)[C@H]2O[C@H]2C[C@](C)(N)[C@H](O)[C@H](C)O2)Oc2ccc(cc2Cl)[C@H]1O` [Van, Vancomycin], the MBC amounted to 128 µg/mL in data set [3], 0.5 µg/mL in data set [4] (ATCC25923), 2 µg/mL in data set [5] (ATCC14990) and 2 µg/mL in data set [6]. In addition, the MIC was determined as 64 µg/mL in data set [3], 1 µg/mL in data set [5] (ATCC14990) and 1 µg/mL in data set [6].
